In patent US6589934B1, “Kv2.1 antagonists” (SmithKline Beecham Corporation, priority 1997, dated 2003):

Target: T1, human kv2.1 (Homo sapiens, UniProt Q14721)
T1 construct: A HindIII-Notl fragment containing full length 2.1 was isolated from pBS/kv2.1 and subcloned to pcDNA3 for expression; expressed in transfected cells
T1 sequence (Q14721 1-858): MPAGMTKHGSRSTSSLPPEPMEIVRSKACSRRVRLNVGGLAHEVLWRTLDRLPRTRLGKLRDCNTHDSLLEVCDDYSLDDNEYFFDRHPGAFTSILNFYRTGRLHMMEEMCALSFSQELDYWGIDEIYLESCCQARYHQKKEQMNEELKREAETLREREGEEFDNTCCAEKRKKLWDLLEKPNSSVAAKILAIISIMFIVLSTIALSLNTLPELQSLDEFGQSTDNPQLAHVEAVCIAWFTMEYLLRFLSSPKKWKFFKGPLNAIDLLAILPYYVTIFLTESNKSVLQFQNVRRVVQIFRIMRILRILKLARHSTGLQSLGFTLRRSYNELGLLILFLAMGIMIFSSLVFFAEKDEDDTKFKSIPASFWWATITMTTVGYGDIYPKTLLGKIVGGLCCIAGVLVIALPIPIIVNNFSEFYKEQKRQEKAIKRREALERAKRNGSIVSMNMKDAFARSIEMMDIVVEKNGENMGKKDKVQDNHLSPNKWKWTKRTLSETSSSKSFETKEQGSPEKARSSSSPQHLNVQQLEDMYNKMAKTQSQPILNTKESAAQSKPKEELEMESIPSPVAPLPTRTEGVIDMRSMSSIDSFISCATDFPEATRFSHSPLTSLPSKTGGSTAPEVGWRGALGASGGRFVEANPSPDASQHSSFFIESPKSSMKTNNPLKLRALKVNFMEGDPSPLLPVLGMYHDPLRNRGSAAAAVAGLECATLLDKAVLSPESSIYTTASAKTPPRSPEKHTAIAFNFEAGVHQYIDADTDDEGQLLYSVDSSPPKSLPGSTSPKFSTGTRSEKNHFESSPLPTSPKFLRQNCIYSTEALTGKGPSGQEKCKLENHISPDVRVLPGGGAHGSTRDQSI
Assay: Whole cell patch clamp block of Kv2.1 in stably expressing CHO cells
Assay type: cell-based
Conditions: CHO cells stably expressing Kv2.1, whole cell patch clamp
Text: Full length cDNA of human kv2.1 was amplified from human brain polyA RNA by PCR. Oligo primers used for PCR amplification were designed according to the GeneBank accession# X68302 . The sequences of the two primers are: (5′ PCR primer) 5′-[…] (SEQ ID NO: 1), (3′ PCR primer) 5′-[…] (SEQ ID NO: 2). The cDNA was subcloned into pBS and sequenced. A HindIII-Notl fragment containing full length 2.1 was isolated from pBS/kv2.1 and subcloned to pcDNA3 for expression. The clone was transferred to pcDNA3 under the CMV promotor. […] Specifically, 1.5 μg of plasmid DNA (1.2 μg of Kv2.1 Plasmid and 0.3 μg of GFP plasmid Green Lantern™ (GIBCO)) was pre-incubated with 100 μl of DMEM/F12 and 12 μl of lipofectamine for a minimum of 15 minutes. Following incubation 1.4 ml of DMEM/F12 was added and the mixture overlayed on CHO cells (70-90% confluent) in a 6 well tray (1.5 ml/well). After 6-8 hours incubation an additional 1.5 ml of DMEM/F12 media containing 10% FBS was added to the transfection reaction. After a further overnight incubation the cells were removed from the 6 well plate with […] and plated at single cell density (10% Confluency) in 6 well plates contianing 25 mm glass coverslips. After overnight incubation, GFP containing cells were patched for current.
Stable CHO lines were prepared by using the same transfection protocol as above excluding the GFP DNA. […]

CN1C[C@@H]2CN(CCCCc3ccc4c(c3)OCCO4)C[C@H](C1)[C@@H]2OC(=O)c1ccc(Cl)cc1 [Example 4]
IC50: ~300 nM

hanatoxin (ECRYLFGGCKTTSDCCKHLGCKFRDKYCAWDFTFS) [reference compound]
IC50: ~60 nM
